This passage reports MIC results from ChEMBL document CHEMBL3044736, “Synthesis, characterization, solvatochromic properties, and antimicrobial evaluation of 5-acetyl-2-thioxo-dihydro-pyrimidine-4,6-dione-based chalcones” (2013).

Common to all, as to format: functional
The subject of experiment [1] is Streptococcus pyogenes. In words: Antimicrobial activity against Streptococcus pyogenes MTCC 442 by agar cup diffusion method.
Experiment [2] relates to Escherichia coli. In words: Antimicrobial activity against Escherichia coli MTCC 443 by agar cup diffusion method.
Experiment [3] relates to Staphylococcus aureus. In words: Antimicrobial activity against Staphylococcus aureus MTCC 96 by agar cup diffusion method.
In experiment [4] the test system is Klebsiella pneumoniae. Nature of the experiment: Antimicrobial activity against Klebsiella pneumoniae MTCC 109 by agar cup diffusion method.
The test system of experiment [5] is Penicillium. In words: Antimicrobial activity against Penicillium wild strain by agar cup diffusion method.
Experiment [6] relates to Candida albicans. Nature of the experiment: Antimicrobial activity against Candida albicans MTCC 227 by agar cup diffusion method.
Experiment [7] relates to Trichophyton rubrum. Nature of the experiment: Antimicrobial activity against Trichophyton rubrum MTCC 296 by agar cup diffusion method.
The test system of experiment [8] is Aspergillus clavatus. Nature of the experiment: Antimicrobial activity against Aspergillus clavatus MTCC 1323 by agar cup diffusion method.

≈ marks a conversion by molar mass, not a printed value.

Turning to `O=C(O)c1cn(C2CC2)c2cc(N3CCNCC3)c(F)cc2c1=O` [CIPROFLOXACIN], the MIC turned out to be 50 µg/mL (≈ 151 µM) in experiment [1], 25 µg/mL (≈ 75.4 µM) in experiment [2], 100 µg/mL (≈ 302 µM) in experiment [3] and 25 µg/mL (≈ 75.4 µM) in experiment [4].
Take `COC1=CC(=O)C[C@@H](C)[C@]12Oc1c(Cl)c(OC)cc(OC)c1C2=O` [GRISEOFULVIN]: the MIC is 100 µg/mL (≈ 283 µM) in experiment [5], 100 µg/mL (≈ 283 µM) in experiment [6], 500 µg/mL (≈ 1420 µM) in experiment [7] and 100 µg/mL (≈ 283 µM) in experiment [8].
